One assay has as its target T1, gp120/DC-SIGN-Fc (Homo sapiens, UniProt Q9NNX6).
T1 construct: fused on or other part: Human IgG Fc fused on as a dimerising and detection handle (detected with anti-human IgG, Fc-gamma-specific antibody)
T1 sequence (Q9NNX6 250-404 limits assumed): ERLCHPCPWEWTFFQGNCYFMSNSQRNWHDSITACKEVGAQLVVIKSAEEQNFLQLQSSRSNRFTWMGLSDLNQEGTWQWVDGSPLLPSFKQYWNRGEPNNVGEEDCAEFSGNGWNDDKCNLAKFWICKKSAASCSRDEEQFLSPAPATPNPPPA
Put plainly: gp120/Fc-DC-SIGN competition ELISA. The format is binding. How it is done: It was then determined whether oligomannose dendrons are able to interfere with the binding between gp120 and DC-SIGN, which is likely to be a key step for dendritic cell-mediated CD4 T cell HIV infection. Gp120/Fc-DC-SIGN ELISA was performed, in a similar setting as gp120/2G12 ELISA, to evaluate the inhibition activity of glycodendrons 14 and 17.
Competition ELISA for Fc-DC-SIGN. DC-SIGN competitions were done with 1.5 μg/ml Fc-DC-SIGN as described above with a few modifications since DC-SIGN is a C-type lectin that requires Ca^2+ for binding. A Tris (10 mM, pH7.8) buffer containing NaCl (150 mM), i.e., TBS, replaced PBS in the abovementioned buffers used for coating, blocking and washing. After the initial wash step, CaCl2 (10 mM) was included in the blocking solution and all subsequent incubation and wash buffers until substrate addition. DC-SIGN-Fc binding was detected with an alkaline phosphatase-conjugated goat anti-human IgG, Fcγ-specific, Ab (Jackson ImmunoResearch Laboratories, Inc.) diluted 1:1000.
(In general: In an ELISA, binding on a coated surface is turned into a signal by an enzyme label.)

In the next assay the target is 2G12 complex. Put plainly: KD,surf of 2G12 complex on glycan-printed normal-NHS-density slide. The format is binding. As to conditions: immobilized on normal-NHS-density slide; saturated value. The procedure: To further test its multivalent efficacy, 17 was immobilized onto a normal-NHS-density slide (FIG. 3d) at varying printing concentrations.
Second generation Man9 dendron 17 on normal NHS density slide: Similar procedure as for normal density Man4 slide was used. Derivative of 17 with a linker connecting free amine was used for printing. The printing concentrations are 100, 80, 60, 40, 20, 10, 8, 6, 4, 2, 1, 0.8, 0.6, 0.4, 0.2, 0.1, 0.08, 0.06, 0.04, and 0.02 μM. The KD,surf of 2G12 complex was obtained (see Table 4) as previously described.
Determination of KD,surf of glycodendron 17. The procedure is the same as that disclosed in Liang et al., “Quantitative analysis of carbohydrate-protein interactions using glycan microarrays: determination of surface and solution dissociation constants.” J Am Chem Soc 129:11177-11184 (2007), which is hereby incorporated by reference as if fully disclosed herein.

In the case of `O=C[C@@H](O)[C@@H](O)[C@H](O)[C@H](O)CO` [D-Mannose, reference compound], on gp120/DC-SIGN-Fc, the IC50 is 8.5 mM. The inhibition activity range result on gp120/DC-SIGN-Fc (gp120/Fc-DC-SIGN ELISA) is “millimolar range”. Consider Man9 [Compound 2], for which binding on 2G12 complex was put at a Kd of 0.00083 mM.

In general, IC50 refers to the concentration needed to halve the response being measured. A higher IC50 goes with lower potency. Broadly, the Kd is the equilibrium constant for the complex coming apart. A higher Kd goes with weaker binding.
